This passage reports IC50 results from patent US10131644B2, “Aryl sultam derivatives as RORc modulators” (Genentech, Inc., priority 2014, dated 2018).

The target in this experiment is T1, RORc (Homo sapiens, UniProt P51449).
T1 sequence (P51449 269-508 limits assumed): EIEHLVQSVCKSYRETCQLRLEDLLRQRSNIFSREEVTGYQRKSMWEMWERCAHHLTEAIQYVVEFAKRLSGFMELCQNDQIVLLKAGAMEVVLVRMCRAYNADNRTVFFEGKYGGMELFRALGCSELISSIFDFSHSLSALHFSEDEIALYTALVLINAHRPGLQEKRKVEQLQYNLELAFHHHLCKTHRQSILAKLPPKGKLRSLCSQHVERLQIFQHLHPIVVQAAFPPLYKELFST
As to the kind of experiment: In vitro RORc ligand binding assay (25-[3H]hydroxycholesterol displacement). Conditions: IC50, IC50 values for RORc; unit inferred.
As to `C[C@H]1CC[C@H](c2ccccc2)S(=O)(=O)N1Cc1ccc(C2(OCC(N)=O)CCOCC2)cc1F` [Compound 113, 2-[4-[3-fluoro-4-[[(3S,6R)-3-methyl-1,1-dioxo-6-phenyl-thiazinan-2-yl]methyl]phenyl]tetrahydropyran-4-yl]oxyacetamide], the IC50 – broadly, the concentration that inhibits the measured activity by half – worked out at 5 nM. The value for `C[C@H]1CC[C@H](c2ccccc2)S(=O)(=O)N1Cc1ccc(OCC2(F)CCOCC2)cc1F` [Example 5, (3S,6R)-2-[2-Fluoro-4-(4-fluoro-tetrahydro-pyran-4-ylmethoxy)-benzyl]-3-methyl-6-phenyl-[1,2]thiazinane 1,1-dioxide] was 160 nM; that for `C[C@H]1CC[C@H](c2ccccc2)S(=O)(=O)N1Cc1cc(F)c(C2(C#N)CC2)cc1F` [Compound 123, 1-[2,5-difluoro-4-[[(3S,6R)-3-methyl-1,1-dioxo-6-phenyl-thiazinan-2-yl]methyl]phenyl]cyclopropanecarbonitrile] was 22.7 nM. The value for `C[C@H]1CC[C@H](c2ccccc2)S(=O)(=O)N1Cc1ccc(C2(NCC(N)=O)CCOCC2)cc1F` [Compound 163, 2-[[4-[3-fluoro-4-[[(3S,6R)-3-methyl-1,1-dioxo-6-phenyl-thiazinan-2-yl]methyl]phenyl]tetrahydropyran-4-yl]amino]acetamide] was 3.2 nM. Then `COC(=O)C1(c2ccc(CN3[C@@H](C)CC[C@@H](c4ccccc4)S3(=O)=O)c(F)c2)CCOCC1` [Compound 38, 4-[3-Fluoro-4-((3S,6S)-3-methyl-1,1-dioxo-6-phenyl-[1,2]thiazinan-2-ylmethyl)-phenyl]-tetrahydro-pyran-4-carboxylic acid methyl ester], with 480 nM; and `COC(=O)C1(c2cc(F)c(CN3[C@@H](C)CC[C@H](c4ccccc4)S3(=O)=O)cc2F)CCC(=O)CC1` [Compound 120, methyl 1-[2,5-difluoro-4-[[(3S,6R)-3-methyl-1,1-dioxo-6-phenyl-thiazinan-2-yl]methyl]phenyl]-4-oxo-cyclohexanecarboxylate], with 6.1 nM; and `C[C@H]1CC[C@H](c2ccccc2)S(=O)(=O)N1Cc1cc(F)c(C2(C(=O)O)CCOCC2)cc1F` [Compound 96, 4-[2,5-difluoro-4-[[(3S,6R)-3-methyl-1,1-dioxo-6-phenyl-thiazinan-2-yl]methyl]phenyl]tetrahydropyran-4-carboxylic acid], with 214 nM. Regarding `C[C@H]1CC[C@H](c2ccccc2)S(=O)(=O)N1Cc1ccc(C2(O)CCC3(CC2)OCCO3)cc1F` [Compound 24, 8-[3-Fluoro-4-((3S,6R)-3-methyl-1,1-dioxo-6-phenyl-[1,2]thiazinan-2-ylmethyl)-phenyl]-1,4-dioxa-spiro[4.5]decan-8-ol], the half-inhibitory concentration (IC50) amounted to 180 nM. Then `COC(CNC1(c2cc(F)c(CN3[C@@H](C)CC[C@H](c4ccccc4)S3(=O)=O)cc2F)CCOCC1)OC` [Compound 189, 4-[2,5-difluoro-4-[[(3S,6R)-3-methyl-1,1-dioxo-6-phenyl-thiazinan-2-yl]methyl]phenyl]-N-(2,2-dimethoxyethyl)tetrahydropyran-4-amine], with 71 nM; and `C[C@H]1CC[C@H](c2ccccc2)S(=O)(=O)N1Cc1cc(F)c(C2(OCC(O)CO)COC2)cc1F` (stereo partly drawn) [Compound 142, 3-[3-[2,5-difluoro-4-[[(3S,6R)-3-methyl-1,1-dioxo-6-phenyl-thiazinan-2-yl]methyl]phenyl]oxetan-3-yl]oxypropane-1,2-diol], with 20.6 nM; and `CCOC(=O)[C@@H](C)NC1(c2ccc(CN3[C@@H](C)CC[C@H](c4ccccc4)S3(=O)=O)c(F)c2)CCOCC1` [Compound 172, ethyl (2R)-2-[[4-[3-fluoro-4-[[(3S,6R)-3-methyl-1,1-dioxo-6-phenyl-thiazinan-2-yl]methyl]phenyl]tetrahydropyran-4-yl]amino]propanoate], with 120 nM. The value for `CC(=O)NC1(c2ccc(CN3[C@@H](C)CC[C@H](c4ccccc4)S3(=O)=O)c(F)c2)CCOCC1` [Compound 94, N-[4-[3-fluoro-4-[[(3S,6R)-3-methyl-1,1-dioxo-6-phenyl-thiazinan-2-yl]methyl]phenyl]tetrahydropyran-4-yl]acetamide] was 93.2 nM; that for `C[C@H]1CC[C@H](c2ccccc2)S(=O)(=O)N1Cc1cc(F)c(C2(OCC(O)CO)CCOCC2)cc1F` (stereo partly drawn) [Compound 151, 3-[4-[2,5-difluoro-4-[[(3S,6R)-3-methyl-1,1-dioxo-6-phenyl-thiazinan-2-yl]methyl]phenyl]tetrahydropyran-4-yl]oxypropane-1,2-diol] was 7.8 nM; that for `CNC(=O)C1(c2ccc(CN3[C@@H](C)CCC(c4ccccc4)S3(=O)=O)cc2)CCOCC1` (stereo partly drawn) [Compound 40, 4-[4-((S)-3-Methyl-1,1-dioxo-6-phenyl-[1,2]thiazinan-2-ylmethyl)-phenyl]-tetrahydro-pyran-4-carboxylic acid methylamide] was 570 nM. Then `C[C@H]1CC[C@H](c2ccccc2)S(=O)(=O)N1Cc1ccc(C2(NC(=O)C(O)CO)CCOCC2)cc1F` (stereo partly drawn) [Compound 111, N-[4-[3-fluoro-4-[[(3S,6R)-3-methyl-1,1-dioxo-6-phenyl-thiazinan-2-yl]methyl]phenyl]tetrahydropyran-4-yl]-2,3-dihydroxy-propanamide], with 138 nM.

On to `C[C@H]1CC[C@H](c2ccccc2)S(=O)(=O)N1Cc1ccc(C2(NCC(=O)N(C)C)CCOCC2)cc1F` [Compound 166, 2-[[4-[3-fluoro-4-[[(3S,6R)-3-methyl-1,1-dioxo-6-phenyl-thiazinan-2-yl]methyl]phenyl]tetrahydropyran-4-yl]amino]-N,N-dimethyl-acetamide], for which the 50% inhibitory concentration (IC50) amounted to 27.6 nM. Then `C[C@H]1CC[C@H](c2ccccc2)S(=O)(=O)N1Cc1ccc(C2(C(=O)N(C)C)CCOCC2)cc1` [Compound 35, 4-[4-((3S,6R)-3-Methyl-1,1-dioxo-6-phenyl-[1,2]thiazinan-2-ylmethyl)-phenyl]-tetrahydro-pyran-4-carboxylic acid dimethylamide], with 820 nM; and `C[C@H]1CC[C@H](c2ccccc2)S(=O)(=O)N1Cc1cc(F)c(C2(CO)CCOCC2)cc1F` [Compound 101, [4-[2,5-difluoro-4-[[(3S,6R)-3-methyl-1,1-dioxo-6-phenyl-thiazinan-2-yl]methyl]phenyl]tetrahydropyran-4-yl]methanol], with 9 nM; and `C[C@H]1CC[C@H](c2ccccc2)S(=O)(=O)N1Cc1ccc(C2(N(C)CC(N)=O)CCOCC2)cc1F` [Compound 188, 2-[[4-[3-fluoro-4-[[(3S,6R)-3-methyl-1,1-dioxo-6-phenyl-thiazinan-2-yl]methyl]phenyl]tetrahydropyran-4-yl]-methyl-amino]acetamide], with 24 nM. Then `CC(=O)NCC1(c2ccc(CN3[C@@H](C)CC[C@H](c4ccccc4)S3(=O)=O)c(F)c2)CCOCC1` [Compound 70, N-[[4-[3-fluoro-4-[[(3S,6R)-3-methyl-1,1-dioxo-6-phenyl-thiazinan-2-yl]methyl]phenyl]tetrahydropyran-4-yl]methyl]acetamide], with 148 nM; and `C[C@H]1CC[C@@H](c2ccccc2)S(=O)(=O)N1Cc1cc(F)c(C2(CO)CCC(O)CC2)cc1F` (some centres unmarked) [Compound 131], with 72.8 nM; and `C[C@H]1CC[C@H](c2ccccc2)S(=O)(=O)N1Cc1ccc([C@]2(C#N)CC[C@@H](n3cnnc3)CC2)cc1F` [Example 20, 1-[3-Fluoro-4-((3S,6R)-3-methyl-1,1-dioxo-6-phenyl-[1,2]thiazinan-2-ylmethyl)-phenyl]-4-[1,2,4]triazol-4-yl-cyclohexanecarbonitrile], with 110 nM. The value for `C[C@H]1CC[C@H](c2ccccc2)S(=O)(=O)N1Cc1ccc([C@]2(C#N)C[C@@H](O)C2)cc1F` [Compound 179, 1-[3-fluoro-4-[[(3S,6R)-3-methyl-1,1 dioxo-6-phenyl-thiazinan-2-yl]methyl]phenyl]-3-hydroxy-cyclobutanecarbonitrile] was 159 nM. Take `C[C@H]1CC[C@H](c2ccccc2)S(=O)(=O)N1Cc1cc(F)c(C2(OCC(=O)O)COC2)cc1F` [Compound 135, 2-[3-[2,5-difluoro-4-[[(3S,6R)-3-methyl-1,1-dioxo-6-phenyl-thiazinan-2-yl]methyl]phenyl]oxetan-3-yl]oxyacetic acid]: the 50% inhibitory concentration (IC50) is 27.2 nM. This IC50 lies about 5.8-fold lower than the previous one. Turning to `C[C@H]1CC[C@H](c2ccccc2)S(=O)(=O)N1Cc1cc(F)c(C2(COCC(N)=O)CC2)cc1F` [Compound 127, 2-[[1-[2,5-difluoro-4-[[(3S,6R)-3-methyl-1,1-dioxo-6-phenyl-thiazinan-2-yl]methyl]phenyl]cyclopropyl]methoxy]acetamide], the IC50 came to 20 nM.

For `C[C@H]1CC[C@H](c2ccccc2)S(=O)(=O)N1Cc1ccc(C2(OCCO)CCOCC2)cc1F` [Compound 99, 2-[4-[3-fluoro-4-[[(3S,6R)-3-methyl-1,1-dioxo-6-phenyl-thiazinan-2-yl]methyl]phenyl]tetrahydropyran-4-yl]oxyethanol], the IC50 was 66.4 nM.

Molecule `C[C@H]1CC[C@H](c2ccccc2)S(=O)(=O)N1Cc1ccc([C@]2(C#N)C[C@H](O)C2)cc1F` [Compound 178, 1-[3-fluoro-4-[[(3S,6R)-3-methyl-1,1-dioxo-6-phenyl-thiazinan-2-yl]methyl]phenyl]-3-hydroxy-cyclobutanecarbonitrile] had an IC50 of 44.1 nM. The value for `C[C@H]1CC[C@H](c2ccccc2)S(=O)(=O)N1Cc1ccc(C2(C(=O)NCC#N)CCOCC2)cc1F` [Compound 57, N-(cyanomethyl)-4-[3-fluoro-4-[[(3S,6R)-3-methyl-1,1-dioxo-6-phenyl-thiazinan-2-yl]methyl]phenyl]tetrahydropyran-4-carboxamide] was 80.2 nM; that for `C[C@H]1CC[C@H](c2ccccc2)S(=O)(=O)N1Cc1ccc(C2(/C(N)=N\O)CCOCC2)cc1F` [Compound 93, 4-[3-fluoro-4-[[(3S,6R)-3-methyl-1,1-dioxo-6-phenyl-thiazinan-2-yl]methyl]phenyl]-N′-hydroxy-tetrahydropyran-4-carboxamidine] was 37.8 nM.
